We go through 58 compounds from ChEMBL document CHEMBL6103565, “Current strategies in design and synthesis of antifungals hybrid and chimeric diazine derivatives” (Bioorg Med Chem, 2025).

Converted amounts (≈) assume the structure as drawn.

Holding throughout (assay type): functional
In one assay the test system is Candida tropicalis. The assay is described as follows: Antifungal activity against Candida tropicalis assessed as inhibition of fungal growth.
For assay [1], the system named is Aspergillus niger. In words: Antifungal activity against Aspergillus niger assessed as inhibition of fungal growth.
The test system of assay [2] is Candida albicans. The assay is described as follows: Antifungal activity against Candida albicans assessed as diameter of zone inhibition by disc diffusion method.
Assay [3] has as its system Candida albicans. The assay is described as follows: Antifungal activity against Candida albicans.
The subject of assay [4] is Aspergillus niger. In words: Antifungal activity against Aspergillus niger assessed as zone of inhibition by disc diffusion method. A general note: Agar diffusion results depend on both activity and mobility in agar.
Assay [5] deals with Candida albicans. The assay is described as follows: Antifungal activity against Candida albicans assessed as zone of inhibition by disc diffusion method.
A further assay relates to Saccharomyces cerevisiae. In words: Antimicrobial activity against Saccharomyces cerevisiae assessed as zone of inhibition by disc diffusion method.

As a reminder, the MIC is the lowest concentration that inhibits growth of the organism. Consider `Nc1nc(-c2ccccn2)cc(-c2cnc(Cl)cn2)n1`, for which the MIC in the assay on Candida tropicalis and in the assay with Aspergillus niger [1] was 110 µM (≈ 31.4 µg/mL) each time.
Consider `Cc1ccc(-c2cc(-c3cnc(Cl)cn3)nc(N)n2)cc1`, for which the MIC in the assay on Candida tropicalis and in the assay on Aspergillus niger [1] was 97.3 µM (≈ 29 µg/mL) in each case.
Regarding `Nc1nc(-c2ccccc2)cc(-c2cnc(Cl)cn2)n1`, the MIC in the assay with Candida tropicalis and in the assay on Aspergillus niger [1] was 97.3 µM (≈ 27.6 µg/mL) each time.
For `Cc1ccc(C(=O)C2C3C(=O)N(c4ccccc4)C(=O)C3C3c4ccccc4C=NN23)cc1` (stereo unspecified), the “inhibition zone (IZ)” value in the assay with Candida albicans [2] was 18 mm.
Still for that read-out and setting: for `CCOC(=O)c1c(C(=O)OCC)c2cc(C)ncn2c1C(=O)c1ccc(Br)cc1` the value was 22 mm.
The same measure, in the same setting: the result for `CCOC(=O)c1cc(C(=O)c2ccc(C)cc2)n2nc(C)c3ccccc3c12` reads 18 mm; that for `CC1=NN2C(C(=O)c3ccc(C)cc3)C3C(=O)N(c4ccccc4)C(=O)C3C2c2ccccc21` (stereo unspecified), 18 mm.
Regarding `O=c1cc[nH]c(=O)n1N=C1CC(c2ccc(Cl)cc2)SC(c2ccc(Cl)cc2)C1` (stereo unspecified), the MIC against Candida albicans [3] was determined as 0.25 µg/mL (≈ 0.56 µM).
Consider `Nc1nc(-c2ccc(Cl)cc2)cc(-c2cnc(Cl)cn2)n1`, for which the MIC in the assay with Candida tropicalis and with Aspergillus niger [1] was 97.3 µM (≈ 31 µg/mL) each time.
As to `CN(C)C=O` [DIMETHYLFORMAMIDE], the “inhibition zone (IZ)” value with Candida albicans [2] stood at 16 mm.
As for `Cc1ccc(C2c3c([nH]c(=O)[nH]c3=O)OC(N)C2C#N)cc1` (stereo unspecified), in the assay with Aspergillus niger [4], the “inhibition zone (IZ)” value came to 10 mm.
For `CCOC(=O)c1cc(C(=O)c2ccc(C)cc2)n2ncccc12`, in the assay on Candida albicans [2], the “inhibition zone (IZ)” value amounted to 18 mm.
Consider `Nc1nc(Cc2ccco2)cc(-c2cnc(Cl)cn2)n1`, for which the MIC with Candida tropicalis and in the assay on Aspergillus niger [1] was 110 µM (≈ 31.8 µg/mL) each time.
For the compound `Nc1nc(-c2ccc([N+](=O)[O-])cc2)cc(-c2cnc(Cl)cn2)n1`, the MIC in the assay on Candida tropicalis and with Aspergillus niger [1] was 97.3 µM (≈ 32 µg/mL) throughout.
As to `CCC(C)N1C=NC2Oc3[nH]c(=O)[nH]c(=O)c3C(c3ccc(OC)cc3)C2C1=N` (stereo unspecified), the “inhibition zone (IZ)” value in the assay on Aspergillus niger [4] was 10 mm.
For `Nc1nc(-c2ccc(F)cc2)cc(-c2cnc(Cl)cn2)n1`, the MIC in the assay with Candida tropicalis and with Aspergillus niger [1] was 97.3 µM (≈ 29.4 µg/mL) in each case.
With `CN(C)c1ccc(/C=N/c2c(N)n(Cc3ccccc3)c(=O)[nH]c2=O)cc1`, the “inhibition zone (IZ)” value in the assay with Candida albicans [5] is on record as 10 mm.
For the compound `CC1=NN2C(C(=O)c3ccc(C)cc3)CC(C#N)C2c2ccccc21` (stereo unspecified), the “inhibition zone (IZ)” value with Candida albicans [2] was 18 mm.
Turning to `CC1=NN(c2ccccc2)C2N=C3SCCN3C(c3ccccc3[N+](=O)[O-])C12` (stereo unspecified), the “inhibition zone (IZ)” value with Aspergillus niger [4] is recorded as 24 mm.
For the compound `Nc1nc(-c2cnc(Cl)cn2)cc(-c2ccc(Cl)cc2Cl)n1`, the MIC in the assay with Candida tropicalis and in the assay with Aspergillus niger [1] was 45.4 µM (≈ 16 µg/mL) each time.
Take `CCOC(=O)c1cc(C(=O)c2ccc(C)cc2)n2ncc3ccccc3c12`: in the assay with Candida albicans [2], the “inhibition zone (IZ)” value stood at 18 mm.
The same measure, in the same setting: the result for `COC(=O)c1c(C(=O)OC)c2cccnn2c1C(=O)c1ccc(C)cc1` reads 18 mm; that for `COc1ccc(C(=O)C2CC(C#N)C3C=C(C)N=CN23)cc1` (stereo unspecified), 23 mm.
On to `Cc1ccc(C2c3c([nH]c(=O)[nH]c3=O)OC(NC(=O)/C=C/C(=O)O)C2C#N)cc1` (stereo unspecified), for which the “inhibition zone (IZ)” value in the assay with Aspergillus niger [4] turned out to be 10 mm.
In the case of `Nc1nc(-c2cccnc2)cc(-c2cnc(Cl)cn2)n1`, the MIC in the assay on Candida tropicalis and in the assay on Aspergillus niger [1] was 110 µM (≈ 31.4 µg/mL) throughout.
Take `CC1=NN(c2ccccc2)C2N=C3SCCN3C(c3ccccc3O)C12` (stereo unspecified): in the assay on Aspergillus niger [4], the “inhibition zone (IZ)” value is reported as 24 mm.
With `Nc1nc(-c2ccc(O)cc2)cc(-c2cnc(Cl)cn2)n1`, the MIC with Candida tropicalis and in the assay on Aspergillus niger [1] was 97.3 µM (≈ 29.2 µg/mL) throughout.
Take `Nc1nc(-c2cnc(Cl)cn2)cc(-c2cccs2)n1`: the MIC in the assay on Candida tropicalis and in the assay on Aspergillus niger [1] was 110 µM (≈ 32 µg/mL) each time.
On to `CN(C)c1ccc(-c2cc(-c3cnc(Cl)cn3)nc(N)n2)cc1`, for which the minimal inhibitory concentration (MIC) in the assay with Candida tropicalis and with Aspergillus niger [1] was 97.3 µM (≈ 31.8 µg/mL) each time.
For the compound `Cc1ccc(C(=O)C2CC(C#N)C3c4ccccc4C=NN23)cc1` (stereo unspecified), the “inhibition zone (IZ)” value in the assay with Candida albicans [2] was determined as 18 mm.
For `Cc1ccc(C(=O)C2CC(C#N)C3C=CC=NN23)cc1` (stereo unspecified), the “inhibition zone (IZ)” value with Candida albicans [2] stood at 18 mm.
The same measure, in the same setting: the result for `CCOC(=O)c1c(C(=O)OCC)c2cc(C)ncn2c1C(=O)c1ccc(OC)cc1` reads 24 mm.
For `COc1ccc(C2c3c([nH]c(=O)[nH]c3=O)OC3N=CN(c4ccccc4N)C(=N)C32)cc1` (stereo unspecified), the “inhibition zone (IZ)” value in the assay on Aspergillus niger [4] is recorded as 10 mm.
As for `CC1=CC2C(C#N)CC(C(=O)c3ccc(Br)cc3)N2C=N1` (stereo unspecified), in the assay on Candida albicans [2], the “inhibition zone (IZ)” value is listed as 22 mm.
For `COc1ccc(C2c3c([nH]c(=O)[nH]c3=O)OC3N=CN(C(N)=O)C(=N)C32)cc1` (stereo unspecified), in the assay with Aspergillus niger [4], the “inhibition zone (IZ)” value is 10 mm.
As to `Nc1nc(-c2cnc(Cl)cn2)cc(-c2ccc(F)cc2F)n1`, the MIC in the assay with Candida tropicalis and in the assay with Aspergillus niger [1] was 50 µM (≈ 16 µg/mL) throughout.
With `CC1=NN(c2ccccc2)C2N=C3SCCN3C(c3cccc([N+](=O)[O-])c3)C12` (stereo unspecified), the “inhibition zone (IZ)” value in the assay with Aspergillus niger [4] is recorded as 24 mm.
As to `O=[N+]([O-])c1ccccc1/C=N/c1ncnc2[nH]ccc12`, in the assay on Saccharomyces cerevisiae, the “inhibition zone (IZ)” value came out at 13 mm.
Regarding `COc1ccc(-c2cc(-c3cnc(Cl)cn3)nc(N)n2)cc1`, the MIC with Candida tropicalis and in the assay on Aspergillus niger [1] was 97.3 µM (≈ 30.5 µg/mL) throughout.
On to `Nc1nc(-c2ccncc2)cc(-c2cnc(Cl)cn2)n1`, for which the MIC in the assay on Candida tropicalis and in the assay on Aspergillus niger [1] was 110 µM (≈ 31.4 µg/mL) each time.
For the compound `CC1=NN(c2ccccc2)C2N=C3SCCN3C(c3ccc(F)cc3)C12` (stereo unspecified), in the assay on Aspergillus niger [4], the “inhibition zone (IZ)” value is 24 mm.
In the case of `Cl.FC(F)(F)c1nnc2n1CCNC2`, it took 250 µg/mL to inhibit growth with Candida albicans [3] (MIC).
On to `CC1=NN(c2ccccc2)C2N=C3SCCN3C(c3ccccc3Cl)C12` (stereo unspecified), for which the “inhibition zone (IZ)” value in the assay on Aspergillus niger [4] stood at 24 mm.
`COC(=O)c1c(C(=O)OC)c2c3ccccc3cnn2c1C(=O)c1ccc(C)cc1`: the “inhibition zone (IZ)” value in the assay with Candida albicans [2] amounted to 18 mm.
Regarding `COc1ccc(-c2cc(-c3cnc(Cl)cn3)nc(N)n2)c(OC)c1`, the MIC with Candida tropicalis and in the assay on Aspergillus niger [1] was 101 µM (≈ 34.6 µg/mL) in each case.
As to `Nc1nc(-c2cnc(Cl)cn2)cc(-c2ccc[nH]2)n1`, the minimum inhibitory concentration (MIC) in the assay on Candida tropicalis and with Aspergillus niger [1] was 110 µM (≈ 30.1 µg/mL) in each case.
Take `Cc1ccc(C(=O)C2C3C(=O)N(c4ccccc4)C(=O)C3C3C=CC=NN32)cc1` (stereo unspecified): the “inhibition zone (IZ)” value in the assay with Candida albicans [2] was found to be 18 mm.
Same read-out and setting: for `COC(=O)c1c(C(=O)OC)c2c3ccccc3c(C)nn2c1C(=O)c1ccc(C)cc1` the value was 18 mm.
Regarding `O=c1c(C(O)c2ccccc2)c(SCc2ccccc2)[nH]c2nc(-c3ccccc3)c(-c3ccccc3)n12` (stereo unspecified), the “inhibition zone (IZ)” value with Aspergillus niger [4] amounted to 15 mm.
Still for that read-out and setting: the result for `O=c1c(C(O)c2ccccc2)c2sc(S)c(-c3ccccc3)n2c2nc(-c3ccccc3)c(-c3ccccc3)n12` (stereo unspecified) reads 15 mm.
Take `CC1=CC2C(C#N)CC(C(=O)c3ccc([N+](=O)[O-])cc3)N2C=N1` (stereo unspecified): the “inhibition zone (IZ)” value in the assay with Candida albicans [2] was 24 mm.
Turning to `CC1=N/C(=C\c2ccc(Cl)cc2)C(=O)N1c1c(N)n(C)c(=O)n(C)c1=O`, the “inhibition zone (IZ)” value in the assay on Candida albicans [5] came to 10 mm.
Compound `O=C(CN1CCn2c(nnc2C(F)(F)F)C1)Nc1nc2ccccc2s1` displayed an MIC with Candida albicans [3] of 250 µg/mL (≈ 654 µM).
Take `COc1cc(-c2cc(-c3cnc(Cl)cn3)nc(N)n2)ccc1O`: the MIC with Candida tropicalis and with Aspergillus niger [1] was 107 µM (≈ 35.2 µg/mL) throughout.
As to `COc1ccc(C2c3c([nH]c(=O)[nH]c3=O)OC3N=CN(c4cc(C)ccn4)C(=N)C32)cc1` (stereo unspecified), the “inhibition zone (IZ)” value in the assay on Aspergillus niger [4] is on record as 10 mm.
Turning to `CCOC(=O)c1c(C(=O)OCC)c2cc(C)ncn2c1C(=O)c1ccc([N+](=O)[O-])cc1`, the “inhibition zone (IZ)” value in the assay on Candida albicans [2] is 28 mm.
In the case of `CC1=NN(c2ccccc2)C2N=C3SCCN3C(c3cccc(Cl)c3)C12` (stereo unspecified), in the assay on Aspergillus niger [4], the “inhibition zone (IZ)” value is 24 mm.
For `COc1ccc(C2c3c([nH]c(=O)[nH]c3=O)OC3N=CN(C(=S)Nc4ccccc4)C(=N)C32)cc1` (stereo unspecified), in the assay on Aspergillus niger [4], the “inhibition zone (IZ)” value was 10 mm.
